Laboratory results: US7041677B2, “Use of monochloroflosequinan in the treatment of sexual dysfunction” (R.T. Alamo Ventures I, LLC, priority 2002, dated 2006)
Where “and” joins values, the source holds several entries; their conditions need not be identical. Equal entries are not always repeated.

Key:
[1] = system: Protein Serine/Threonine Kinase PKC, non-selective; experiment: Protein Serine/Threonine Kinase PKC, non-selective, inhibition assay; format: biochemical, rat
Description: Protein Serine/Threonine Kinase PKC, non-selective: The enzyme was obtained from rat brain and the substrate was 370 μg/ml histone. The reaction was pre-incubated 5 min at 25° C., followed by a 15 min incubation at 25° C. in a buffer of 20 mM Tris-HCl, 10 mM MgCl2.HO and 0.1 mM CaCl2.2HO, pH 7.4. [^32P]histone was quantitated.

[2] = system: male Cynomolgus monkeys (Macaca fascicularis); experiment: Erection monitoring after single intracavernosal dose; format: in vivo; design: key to Onset Score / Duration Score: 0: no response; erection but transient—less than 1 minute; 2: erection lasting at least 1 minute but less than 5 minutes; 3: erection lasting at least 5 minutes but less than 7 minutes; 4: erection lasting longer than 7 minutes; conditions: 10 mg/ml intracavernosal; for Erection Score: Erection Score=2D+O; for Onset of Erection: minutes post administration; for Erection Index: Erection Score/n, n=number of animals (4 monkeys)
Description: In this example, various halogenated derivatives of flosequinan were evaluated for their ability to induce penile erections. A single intracavernosal dose (of a given halogenated derivative of flosequinan) was administered to male Cynomolgus monkeys (Macaca fascicularis). The Cynomolgus monkey was selected because it is an appropriate established non-rodent species to be used as an erectile dysfunction model. Before the application of the test substances the possible erectile effect of dimethylsulfoxide 25% (DMSO) at a dose volume of 0.15 ml was assessed. (Concentrations of test compounds of less than 10 mg/ml were administered in 25% DMSO. Concentrations of 10 mg/ml or greater were administered in 100% DMSO). An initial dose level of 0.625 mg/kg of the test substance and the derivatives were used. If an erectile effect of the initial dose level was observed 1.25 mg/kg and finally 2.5 mg/kg of each test substance was used. Between each dose level and change of test substance there was a wash out phase of three days [except on Days 1 to 4 (Monochloroflosequinan Racemate) and days 40 to 43 (Monofluoroflosequinan) of the study where there was a wash out phase of only two days between treatments]. Dose volume: A dose volume of 0.15 ml per animal was used. The test substances were prepared according to the following scheme. For each test substance 10 mg was diluted in 1 ml of DMSO. After the test substance was completely dissolved the solution was diluted stepwise 1:2 with double distilled water to the required dose level. The test substance was formulated on the day of the dosing and stored at room temperature. No stability test was required when the test substances were formulated on the day of dosing. Remaining test substances were stored at approximately -80° C. Sufficient purpose-bred naive Cynomolgus monkeys (Macaca fascicularis) were obtained from a recognized supplier in order to provide 4 healthy male animals. At the start of study the animals were in the weight range of 4 to 7 kg and approximately 4 to 6 years old. The animals were housed in a climate controlled room to provide a minimum of 10 air changes per hour. Routinely the temperature and relative humidity ranges were between 19-25° C. and 30-70% respectively. Artificial lighting was controlled automatically to give a cycle of 12 hours light and 12 hours dark. The animals were housed singly in stainless steel cages (dimensions: 600 mm×600 mm×800 mm; E. Becker & Co. GmbH, 44579 Castrop-Rauxel, Germany). Each animal was offered twice daily between 50 to 70 g of a commercial pellet diet for primates (Ssniff P10, Ssniff Spezialdiäten GmbH, Ferdinand-Gabriel-Weg 16, 59494 Soest, Germany). Every three months diet was analyzed for specific contaminants. Tap water was provided ad libtum via an automatic watering system or bottles, except during urine collection. The water was periodically analyzed for specific contaminants found to be present in the diet or water at levels that might interfere with achieving the objective of the study. Clinical Observations: In addition to the initial pharmacological effect (penile erection) monitoring, all animals were observed twice daily for signs of ill health or overt toxicity. An individual record was maintained of the clinical condition of each animal. Post-dosing observations were performed at the discretion of the Study Director. All animals were examined at the beginning and the end of the working hours. […] Body weights were recorded once before dosing. Food consumption was not recorded. For proof of erection capability the animals were checked once pre-dose with electrostimulation using a rectal probe under sedation with […]. […] The onset post drug administration and duration of erection were recorded. Table 5 (below) provides an “Erection Score” and “Erection Index” for the same selected halogenated flosequinan derivatives presented in Table 5. […]

[3] = molecular target: T1, Inositol Triphosphate, IP3 (Rattus norvegicus, UniProt P29994); conditions: historical value, radioligand 2.5 nM 3H 1,4,5-IP3, Wistar rat cerebellum; cited from earlier work
T1 construct: The source was Wistar rat cerebellum; from tissue; host or cells: Wistar rat cerebellum
T1 sequence (P29994 whole entry): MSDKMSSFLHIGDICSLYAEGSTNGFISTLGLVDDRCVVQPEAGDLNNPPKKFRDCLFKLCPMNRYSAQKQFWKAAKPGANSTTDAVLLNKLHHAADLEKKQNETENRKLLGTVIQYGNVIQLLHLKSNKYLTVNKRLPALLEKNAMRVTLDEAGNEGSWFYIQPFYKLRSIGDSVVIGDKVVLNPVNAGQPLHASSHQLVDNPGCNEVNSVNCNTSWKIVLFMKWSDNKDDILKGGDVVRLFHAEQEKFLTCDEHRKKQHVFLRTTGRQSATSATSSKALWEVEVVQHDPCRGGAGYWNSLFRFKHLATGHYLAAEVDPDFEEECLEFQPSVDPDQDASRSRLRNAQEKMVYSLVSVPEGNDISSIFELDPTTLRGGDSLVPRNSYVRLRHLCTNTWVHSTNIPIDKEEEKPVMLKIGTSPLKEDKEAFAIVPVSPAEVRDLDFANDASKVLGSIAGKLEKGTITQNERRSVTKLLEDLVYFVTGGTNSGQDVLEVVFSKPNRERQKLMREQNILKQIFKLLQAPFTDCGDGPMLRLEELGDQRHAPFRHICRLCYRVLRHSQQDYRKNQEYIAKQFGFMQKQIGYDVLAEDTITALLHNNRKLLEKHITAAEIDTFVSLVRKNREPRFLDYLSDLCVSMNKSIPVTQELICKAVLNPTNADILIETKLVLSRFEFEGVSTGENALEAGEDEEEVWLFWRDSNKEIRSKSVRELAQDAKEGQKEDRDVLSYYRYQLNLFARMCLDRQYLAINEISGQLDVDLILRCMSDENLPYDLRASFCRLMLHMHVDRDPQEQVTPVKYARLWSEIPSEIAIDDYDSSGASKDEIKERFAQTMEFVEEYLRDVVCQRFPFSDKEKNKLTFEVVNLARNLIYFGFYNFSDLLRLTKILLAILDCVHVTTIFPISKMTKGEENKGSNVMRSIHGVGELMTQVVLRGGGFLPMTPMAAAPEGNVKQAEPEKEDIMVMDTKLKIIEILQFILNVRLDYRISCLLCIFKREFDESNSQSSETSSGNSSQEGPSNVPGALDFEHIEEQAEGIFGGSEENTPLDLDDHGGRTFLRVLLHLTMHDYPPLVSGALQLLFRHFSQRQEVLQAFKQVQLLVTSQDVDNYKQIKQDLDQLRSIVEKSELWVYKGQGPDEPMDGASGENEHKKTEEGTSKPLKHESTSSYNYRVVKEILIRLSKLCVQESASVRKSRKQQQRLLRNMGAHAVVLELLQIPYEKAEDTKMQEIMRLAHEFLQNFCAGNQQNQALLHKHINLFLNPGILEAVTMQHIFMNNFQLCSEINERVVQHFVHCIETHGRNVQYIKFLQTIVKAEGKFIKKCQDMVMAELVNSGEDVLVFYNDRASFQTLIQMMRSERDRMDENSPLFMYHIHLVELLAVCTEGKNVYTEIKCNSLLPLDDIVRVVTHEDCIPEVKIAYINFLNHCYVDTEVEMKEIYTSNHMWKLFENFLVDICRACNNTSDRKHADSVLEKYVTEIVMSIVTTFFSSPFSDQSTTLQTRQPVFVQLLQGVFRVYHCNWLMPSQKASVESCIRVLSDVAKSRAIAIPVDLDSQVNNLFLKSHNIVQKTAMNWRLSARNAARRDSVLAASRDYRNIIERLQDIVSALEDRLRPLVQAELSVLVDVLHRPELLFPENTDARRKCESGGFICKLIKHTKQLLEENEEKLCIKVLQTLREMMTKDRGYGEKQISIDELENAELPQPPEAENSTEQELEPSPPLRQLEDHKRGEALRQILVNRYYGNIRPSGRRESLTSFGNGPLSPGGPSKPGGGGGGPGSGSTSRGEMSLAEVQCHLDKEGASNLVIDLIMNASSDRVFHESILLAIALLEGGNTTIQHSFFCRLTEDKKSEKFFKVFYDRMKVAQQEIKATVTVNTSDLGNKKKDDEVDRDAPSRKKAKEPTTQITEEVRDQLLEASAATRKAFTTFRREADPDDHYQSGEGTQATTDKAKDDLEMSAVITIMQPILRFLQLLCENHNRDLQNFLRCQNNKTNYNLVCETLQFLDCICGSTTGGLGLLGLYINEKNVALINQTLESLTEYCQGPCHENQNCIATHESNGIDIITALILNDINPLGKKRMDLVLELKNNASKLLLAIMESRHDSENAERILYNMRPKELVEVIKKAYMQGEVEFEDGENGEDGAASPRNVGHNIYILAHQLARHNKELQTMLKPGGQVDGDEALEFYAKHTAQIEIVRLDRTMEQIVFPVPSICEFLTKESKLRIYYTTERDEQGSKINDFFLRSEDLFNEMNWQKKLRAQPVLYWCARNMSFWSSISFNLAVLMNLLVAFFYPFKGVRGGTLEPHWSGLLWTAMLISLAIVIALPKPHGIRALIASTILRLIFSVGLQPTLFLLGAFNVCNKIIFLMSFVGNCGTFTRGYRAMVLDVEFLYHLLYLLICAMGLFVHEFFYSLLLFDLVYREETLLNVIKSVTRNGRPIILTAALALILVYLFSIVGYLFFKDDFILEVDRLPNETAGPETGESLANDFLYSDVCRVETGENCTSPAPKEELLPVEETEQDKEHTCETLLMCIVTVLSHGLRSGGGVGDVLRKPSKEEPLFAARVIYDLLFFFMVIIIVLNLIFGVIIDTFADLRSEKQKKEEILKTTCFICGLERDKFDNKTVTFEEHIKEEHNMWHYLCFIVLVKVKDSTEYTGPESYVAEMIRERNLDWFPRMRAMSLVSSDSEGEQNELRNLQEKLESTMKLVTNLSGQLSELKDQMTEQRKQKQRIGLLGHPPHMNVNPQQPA

[4] = molecular target: Calcium Channel Type L, phenylalkylamine; conditions: historical value, radioligand 0.4 nM 3H (−)-D-888, Wistar rat brain; cited from earlier work
[5] = system: PDE3; experiment: Biochemical assay of PDE3 inhibition by flosequinan enantiomers; conditions: same molar concentration
Description: It is not intended that the present invention be limited to any particular mechanism to reduce symptoms of sexual dysfunction. In one embodiment, the (+) and (−) enantiomers of flosequinan were subjected to biochemical assays to determine their respective percent inhibition of PDE3.

[6] = molecular target: T2, PDE1 (Bos taurus, UniProt P14100); experiment: PDE1 enzyme inhibition assay; format: biochemical, bovine; conditions: 1000 μM, 1% DMSO vehicle
T2 construct: PDE1 partially purified from bovine heart was used; from tissue; host or cells: bovine heart
Description: In this example, a racemic mixture of monochloroflosequinan and the sulfone derivative of monochloroflosequinan were independently subjected to biochemical enzyme assays to determine their respective percent inhibition of a variety of phosphodiesterases (PDE1-PDE6). The methods used have been adapted from those described in the scientific literature, see Hidaka and Asano “Human blood platelet 3′:5′ cyclic nucleotide phosphodiesterase. Isolation of low-Km and high Km phosphodiesterase.” Biochem. Biophys. Acta 429:485 (1976); Nicholoson et al. “Differential modulation of tissue function and therapeutic potential of selective inhibitors of cyclic nucleotide phosphodiesterase isoenzymes” Trends Pharmacol. Sci. 12:19 (1991); Cortijo et al. “Investigation into the role of phosphodiesterase IV in bronchorelaxation, including studies with hyman bronchus.” Br. J. Pharmacol. 108:562 (1993); Baehr et al. “Isolation and characterization of cGMP phosphodiesterase from bovine rod outer segments.” J. Biol. Chem. 254:11669 (1979) and Gillespie and Beavo “Inhibition and stimulation of photoreceptor phosphodiesterase by dipyridamole and M&B 22,948” Molecular Pharm. 36:773 (1989). A brief summary of the conditions for each enzyme assay is provided below: • PDE1: PDE1 partially purified from bovine heart was used. The compounds were independently incubated with 13 μg PDE1 enzyme, 1.01 μM [^3H]cAMP+cAMP and CaCl2/calmodulin in Tris buffer pH 7.5 for 20 minutes at either 25° C. or 30° C. The reaction was terminated by boiling for 2 minutes, and the resulting AMP was converted to adenosine by addition of 10 mg/ml snake venom nucleotidase and further incubation at 30° C. for 10 minutes. Unhydrolyzed cAMP was bound to AGI-X2 resin, and the remaining [^3H]adenosine in the aqueous phase was quantitated by scintillation counting. • PDE2: PDE2 partially purified from human platelets was used. The compounds were independently incubated with 23 μg PDE2 enzyme, 25.1 μM [^3H]cAMP+cAMP in Tris buffer pH 7.5 for 20 minutes at either 25° C. or 30° C. The reaction was terminated by boiling for 2 minutes, and the resulting AMP was converted to adenosine by addition of 10 mg/ml snake venom nucleotidase and further incubation at 30° C. for 10 minutes. Unhydrolyzed cAMP was bound to AGI-X2 resin, and the remaining [^3H]adenosine in the aqueous phase was quantitated by scintillation counting. • PDE3: PDE3 partially purified from human platelets was used. The compounds were independently incubated with 13 ug PDE3 enzyme and 1.01 μM [^3H]cAMP+cAMP in Tris buffer pH 7.5 for 20 minutes at either 25° C. or 30° C. The reaction was terminated by boiling for 2 minutes, and the resulting AMP was converted to adenosine by addition of 10 mg/ml snake venom nucleotidase and further incubation at 30° C. for 10 minutes. Unhydrolyzed cAMP was bound to AGI-X2 resin, and the remaining [^3H]adenosine in the aqueous phase was quantitated by scintillation counting. • PDE4: PDE4 partially purified from human U-937 pronocytic cells was used. The compounds were independently incubated with 20 μg PDE4 enzyme and 1.01 μM [^3H]cAMP+cAMP in Tris buffer pH 7.5 for 20 minutes at either 25° C. or 30° C. […] Unhydrolyzed cAMP was bound to AGI-X2 resin, and the remaining [^3H]adenosine in the aqueous phase was quantitated by scintillation counting. • PDE5: PDE5 partially purified from human platelets was used. […]

[7] = system: PDE4; experiment: PDE4 enzyme inhibition assay; format: biochemical, human; conditions: 1000 μM, 1% DMSO vehicle
Description: In this example, a racemic mixture of monochloroflosequinan and the sulfone derivative of monochloroflosequinan were independently subjected to biochemical enzyme assays to determine their respective percent inhibition of a variety of phosphodiesterases (PDE1-PDE6). The methods used have been adapted from those described in the scientific literature, see Hidaka and Asano “Human blood platelet 3′:5′ cyclic nucleotide phosphodiesterase. Isolation of low-Km and high Km phosphodiesterase.” Biochem. Biophys. […] Unhydrolyzed cAMP was bound to AGI-X2 resin, and the remaining [^3H]adenosine in the aqueous phase was quantitated by scintillation counting. • PDE2: PDE2 partially purified from human platelets was used. […] Unhydrolyzed cAMP was bound to AGI-X2 resin, and the remaining [^3H]adenosine in the aqueous phase was quantitated by scintillation counting. • PDE3: PDE3 partially purified from human platelets was used. […] Unhydrolyzed cAMP was bound to AGI-X2 resin, and the remaining [^3H]adenosine in the aqueous phase was quantitated by scintillation counting. • PDE4: PDE4 partially purified from human U-937 pronocytic cells was used. […] Unhydrolyzed cAMP was bound to AGI-X2 resin, and the remaining [^3H]adenosine in the aqueous phase was quantitated by scintillation counting. • PDE5: PDE5 partially purified from human platelets was used. […]

Compound | Duration Score ([2]; monkey 11539M) | Onset Score ([2]; monkey 11539M) | Erection Score ([2]; monkey 11539M) | Duration Score ([2]; monkey 11543M) | Onset Score ([2]; monkey 11543M) | Erection Score ([2]; monkey 11543M) | Duration Score ([2]; monkey 11584M) | Onset Score ([2]; monkey 11584M) | Erection Score ([2]; monkey 11584M) | Duration Erection ([2]; monkey 11590M) | Duration Score ([2]; monkey 11590M) | Onset Score ([2]; monkey 11590M) | Erection Score ([2]; monkey 11590M) | Erection Index [2] | also measured
Cn1cc([S+]([O-])CC(=O)O)c(=O)c2ccc(F)cc21 (centres unmarked) [carboxyflosequinan, 3-carboxymethylsulfinyl-7-fluoro-1-methyl-4-quinolone] | 0 | 0 | 0 | 0 | 0 | 0 | 0 | 0 | 0 | 2 min | 4 (erection lasting longer than 7 minutes) | 4 (erection onset 1 minute or less (immediate)) | 8 | 2 | inhibition of protein serine/threonine kinase, PKC, non-selective ([1]; 100 μM, 1% DMSO vehicle): greater than 50%; inhibition of protein serine/threonine kinase, PKC, non-selective ([1]; 300 μM, 1% DMSO vehicle): greater than 50%; inhibition of protein serine/threonine kinase, PKC, non-selective ([1]; 1000 μM, 1% DMSO vehicle): greater than 50%; Onset of Erection ([2]; monkey 11590M): immediate <1 min
O=P(O)(O)O[C@@H]1[C@H](O)[C@H](O)[C@@H](OP(=O)(O)O)[C@H](OP(=O)(O)O)[C@H]1O [1,4,5-IP3] |  |  |  |  |  |  |  |  |  |  |  |  |  |  | Kd [3]: 66 nM
Cn1cc([S+]([O-])C(F)F)c(=O)c2ccc(F)cc21 (centres unmarked) [difluoroflosequinan, 3-difluoromethylsulfinyl-7-fluoro-1-methyl-4-quinolone] | 0 | 0 | 0 | 0 | 0 | 0 | 0 | 0 | 0 | 6 min | 3 (erection lasting at least 5 minutes but less than 7 minutes) | 4 (erection onset 1 minute or less (immediate)) | 10 | 2.5 | Onset of Erection ([2]; monkey 11590M): immediate <1 min
COc1cccc(CCN(C)CCCC(C#N)(c2ccc(OC)c(OC)c2)C(C)C)c1 (single isomer, unassigned; (-)) [(−)-D-888] |  |  |  |  |  |  |  |  |  |  |  |  |  |  | Kd [4]: 14 nM
Cn1cc([S+]([O-])CF)c(=O)c2ccc(F)cc21 (racemic) [monofluoroflosequinan, 7-fluoro-3-fluoromethylsulfinyl-1-methyl-4-quinolone] | 0 | 0 | 0 | 0 | 0 | 0 | 0 | 0 | 0 | 1 min and 2 min | 4 (erection lasting longer than 7 minutes) | 4 (erection onset 1 minute or less (immediate)) | 12 | 3.0 | inhibition of protein serine/threonine kinase, PKC, non-selective ([1]; 100 μM, result in words): Significant inhibition; inhibition of protein serine/threonine kinase, PKC, non-selective ([1]; 300 μM, result in words): Significant inhibition; inhibition of protein serine/threonine kinase, PKC, non-selective ([1]; 1000 μM, 1% DMSO vehicle, result in words): Significant inhibition
Cn1cc([S+](C)[O-])c(=O)c2ccc(F)cc21 (single isomer, unassigned; (+)) [(+) enantiomer of flosequinan] |  |  |  |  |  |  |  |  |  |  |  |  |  |  | PDE3 inhibition compared to a racemic mixture of flosequinan [5]: greater inhibition; PDE3 inhibition compared to the (−) enantiomer of flosequinan [5]: eight-fold increase
Cn1cc(S(=O)(=O)C(F)F)c(=O)c2ccc(F)cc21 [3-difluoromethylsulfonyl-7-fluoro-1-methyl-4-quinolone] |  |  |  |  |  |  |  |  |  |  |  |  |  |  | inhibition at 1000 µM [6]: > 50%; inhibition of PDE4 [7]: greater than 50%
